Assay results: patent US10351594B2, “Process for preparing compounds having triple activities of thrombolysis, antithrombosis, and radical scavenging” (Shanghai Lumosa Therapeutics Co., Ltd., priority 2013, dated 2019)
“Also recorded” adds a separate entry of the source. Marks after values point to notes of the source that are not given here.

How the values were obtained:
[1] = test system: formation of thrombus (rat arteriovenous bypass); test: Antithrombotic activity via intravenous administration, rat arteriovenous bypass cannula with thread; assay type: in vivo, male SD rats; conditions: n = 10
[2] = NO radical scavenging activity (MGD/SNAP signal peak height); assay type: biochemical; conditions: n = 6
Protocol: 7.325 mg MGD (N-methyl-glucamine dithiocarbamate, Sigma) was dissolved in 1 mL of pure water to obtain 25 mM MGD solution. […] FeSO4.7H2O was dissolved in 1 mL of pure water to obtain 12.5 mM solution. […] SNAP (S-Nitroso-acetyl penicillamine) was dissolved in 1 mL of pure water to obtain 110 μM green mother liquid, which was diluted 100 folds to obtain 1 μM SNAP solution.
The first peak height of NO signal of 5 μL MGD solution+5 μL FeSO4.7H2O solution+5 μL SNAP solution+5 μL water was measured and repeated for 6 times. This peak height defined as the known peak height of NO signal. The first peak height of NO signal of 5 μL MGD solution+5 μL FeSO4.7H2O solution+5 μL SNAP solution+5 μL solution of one of the compounds 5Aa-p was measured and repeated for 6 times. This peak height defined as the residual peak height of the NO signal scavenged by one of the compounds 5Aa-p. Scavenging ratio=(known peak height of NO signal−residual peak height of NO signal of compounds 5Aa-p)/known peak height of NO signal

stroke rats = test: Therapeutic effect in stroke rats (microthrombus injected into the brain, treated at once): Zealonga score and TTC infarction volume; assay type: in vivo, SD male rats; conditions: for Neural function scores: Zealonga method, 24 hours after awake, n = 9; for Percentage of infarction volume: cerebral infarction, TTC, n = 7
Protocol: SD male rats (280-300 g) were randomly divided to UK positive control group at a dose of 20000 IU/kg, blank control group with normal saline solution, compound control group with PAK at a dose of 5 μmol/kg, and compound 5Ak group at a dose of 1 μmol/kg (high), 0.1 μmol/kg (medium), and 0.01 μmol/kg (low). A 10% chloral hydrate solution (400 mg/kg) was injected intraperitoneally into rats for anesthesia. […] The 10 μl blood drawn was placed in a 1 mL EP vial and kept at RT for 30 min to allow the coagulation of blood and then transferred into a −20° C. refrigerator for 1 hour to allow the formation of solid coagulation. 1 hour later, the blood clots were taken out, 1 mL normal saline was added therein, and then the blood clots were broken into relatively uniform microthrombus by a steel spatula. The microthrombus suspension was then transferred into a 1 mL injector for use. […] The common jugular vein was separated, and then injected with UK at the dose of 20000 IU/kg, normal saline solution, or compound 5Ak at the dose of 1 μmol/kg. The vein was ligated. 3 drops of penicillin was dropped on the wound. The wound was sewed, and animals were waited for awake.
24 hours after the rats were awake, the degree of damage in neural function was evaluated by the Zealonga method. […] The evaluation results were statistically analyzed and subjected to t-test.
After the rats were awake for 24 hours and assessed for their degree of damage in neural function by Zealonga method, they were anesthetized with urethane followed by immediate decapitation and removal of the brain. Brain tissues were kept in a −20° C. refrigerator for 2 hours, and coronal sections of about 2 mm were successively sliced from the prefrontal end for a total of 5 sections and then placed into a 2% TTC solution to incubate without light at 37° C. for 30 min. The color change in brain sections was observed: normal brain tissues were stained red by TTC, while ischemic brain tissues appeared in white. Photographs were taken by using a digital camera and processed with image statistics software, and the volume of infarction in brain tissues and the area of normal brain tissues in the coronal sections were calculated. The ratio of the cerebral infarction volume of each group was statistically calculated and subject to t-test.

[3] = test system: thrombus (rat arteriovenous bypass thrombolysis model); test: Thrombolytic activity via intravenous administration, rat arteriovenous bypass thrombolysis model; assay type: in vivo, male SD rats; conditions: for Weight reduction in thrombus: n = 10
Protocol: 200-220 g male SD rats were anesthetized with 20% urethane solution (6 mL/kg, ip). Anesthetized rats were fixed in a supine position, and the right common carotid artery was separated, clamped at the proximal end with an arterial clip, and penetrated with a suture at the proximal and distal ends, respectively. The suture at the distal end is clipped tightly by a hemostatic clamp at the skin/fur. Cannulation was performed at the distal end, the arterial clamp was loosened, and about 1 ml arterial blood was discharged into a 1 mL EP vial. 0.1 mL rat arterial blood was injected into a vertically fixed glass tube (15 mm in length, with an inner diameter of 2.5 mm and an outer diameter of 5.0 mm, sealed with a rubber stopper at the bottom), into which was immediately inserted a thrombus immobilization screw made of stainless steel. […] 40 min after the blood coagulated, the rubber stopper at the bottom of the glass tube was removed, the stem of the thrombus immobilization screw was fixed by forceps, and the thrombus-wrapped thrombus immobilization screw was carefully taken out from the glass tube and precisely weighted.
A bypass cannula was composed of 3 segments. The middle segment was a polyethylene tube having a length of 60 mm and an inner diameter of 3.5 mm. The segments on both ends were similar polyethylene tubes having a length of 100 mm, an inner diameter of 1 mm and an outer diameter of 2 mm, one end of which was pulled to form a tip, with an outer diameter of 1.0 mm (used in inserting into the rat carotid artery or vein), the other end of which was sheathed by a polyethylene tube having a length of 7 mm and an outer diameter of 3.5 mm (thickened, used in inserting into the polyethylene tube of the middle segment). The inner wall of the 3-segment cannula was entirely silylated. The thrombus-wrapped thrombus immobilization screw was placed into the polyethylene tube of the middle segment, and both ends of the tube sheath the thickened ends of two polyethylene tubes. The cannula was filled with a heparin solution in normal saline (50 IU/kg) through the tip end by using an injector and was ready for use.
The left external jugular vein of the rat was separated and penetrated with a suture at the proximal and distal ends respectively, and the distal end was ligated. An incision was carefully made on the exposed left external jugular vein, and the tip of the bypass cannula prepared as described above was inserted into the proximal end of the incision in the left external jugular vein, away from the stem of the thrombus immobilization screw in the middle segment of the bypass cannula (which accommodated the accurately weighed thrombus immobilization screw). A precise amount of heparin in saline (50 IU/kg) was injected through the tip at the other end by using an injector. At this moment, without removing the injector from the polyethylene tube, the tube between the injector and the polyethylene tube was clamped with a hemostatic clamp. The blood flow was stopped by clamping the proximal end of the right common carotid artery with an arterial clip, and an incision was cut carefully across the common carotid artery near the clip. The injector was pulled out of the polyethylene tube through the tip, and the tip of the polyethylene tube was then inserted into the proximal end of the artery incision. Both ends of the bypass cannula were fixed to the artery or vein with #4 sutures.
A scalp needle was used to pass saline solution, a urokinase in saline solution or varied concentrations of the compounds in saline solution through the middle section of the bypass cannula (which accommodated the accurately weighed thrombus immobilization screw) to a position at the proximal vein and away from the thrombus immobilization screw. The artery clip was then removed to allow blood to flow from the artery to the vein through the bypass cannula. A rat arteriovenous bypass thrombolysis model was thus established. […]

In the case of `C[C@H](NC(=O)[C@@H]1CCCN1)C(=O)N[C@@H](CCCCN)C(=O)NCCCC[C@H](NC(=O)[C@@H]1Cc2cc(O)c(O)cc2C(C)(C)N1)C(=O)O` [Compound 5Ak, 3S-6,7-dihydroxy-1,1-dimethyl-1,2,3,4-tetrahydro-isoquinoline-3-acyl-Lys(Pro-Ala-Lys)], the “wet weight of thrombus” value ([1]; Table 4, 5Ak 0.001 nmol/kg i.v.) is reported as 61.91 ± 3.27^c mg, the “wet weight of thrombus” value ([1]; Table 4, 5Ak 0.01 nmol/kg i.v.) is reported as 57.34 ± 3.73^b mg and the EC50 [2] is reported as 499 ± 89 µM. For the same compound, the “Therapeutic effect in stroke rats, result in words” value (stroke rats; 5Ak 1, 0.1, 0.01 μmol/kg) was “effectively prevent the brain ischemia rats from occurrence of dyskinesia and cerebral infarction; also recorded: dose dependent”, the Neural function scores (stroke rats; 5Ak 0.01 μmol/kg) was 2.30 ± 0.95^c and the Neural function scores (stroke rats; 5Ak 0.1 μmol/kg) was 1.40 ± 1.07^b. The Neural function scores (stroke rats; 5Ak 1 μmol/kg) was 1.10 ± 0.74^a, the “Percentage of infarction volume” value (stroke rats; 5Ak 0.01 μmol/kg) was 18.05 ± 5.77^c % and the “Percentage of infarction volume” value (stroke rats; 5Ak 0.1 μmol/kg) was 9.88 ± 2.52^b %. The “Percentage of infarction volume” value (stroke rats; 5Ak 1 μmol/kg) was 3.44 ± 1.99^a %, the “Weight reduction in thrombus” value ([3]; Table 2, 5Ak 0.001 nmol/kg i.v.) was 11.73 ± 2.15 ^c mg and the “Weight reduction in thrombus” value ([3]; Table 2, 5Ak 0.01 nmol/kg i.v.) was 14.62 ± 2.46 b mg. The “Weight reduction in thrombus” value ([3]; Table 2, 5Ak 0.1 nmol/kg i.v.) was 21.61 ± 4.62^a mg, the “Weight reduction in thrombus” value ([3]; rat, intravenous injection, 5Aa-p 0.1 nmol/kg, 1 hour) was 19.38 ± 2.81^b mg and the “Thrombolytic activity, result in words” value ([3]; rat, intravenous, 0.1 nmol/kg (5Ak also 0.01 and 0.001 nmol/kg), urokinase 20000 U/kg) was “comparable to that of urokinase; also recorded: higher thrombolytic activity; also recorded: highest thrombolytic activity; also recorded: obvious dose-effect relationship”.
